Data from US20110071075A1, “PROMOTER FOR BICARBONATE SECRETION IN GASTROINTESTINAL TRACT” (priority 2008, published 2011).
“Also recorded” adds a separate entry of the source. *1 amine or outer side, *2 acyl side, *3 side chain or, on linkers, in order; H or OH if unused. Where no end group is shown, it is not given here. [ ]: non-standard residue; d: D form. γGlu = O=C(O)[C@H](CCC(=O)[*:2])N[*:1]

Experiments:
gastric mucosal D cells = test: Somatostatin secretion of cultured fractionated gastric mucosal D cells (somatostatin ELISA); format: cell-based, male SD rat; conditions: 90 minutes culture
Description: The abdomen of each male SD rat was opened in the midline under anesthesia to remove the stomach. The stomach was ligated at the cardiac region and at the junction between the gastric body and the pylorus, and the pyloric region was excised. After that, the stomach was everted so that the luminal side is exposed outside. To the inside of the stomach, Buffer A containing 2.5 mg/ml protease (Sigma P6911, Protease, From Streptomyces griseus, 5.5 unit/mg solid) was injected to prepare a balloon. The balloon was shaken at 37° C. for 30 minutes in Buffer A for 30 minutes and in Buffer B for 30 minutes×three times. After that, the balloon was stirred three times in Buffer B containing 0.5 mg/ml DNase, the detached cells were centrifuged and then suspended in Buffer C. After the cell suspension had been filtered with a filter, cells were fractionated and collected with an elutriator manufactured by Hitachi, Ltd.
Repeated fractionation was conducted using an elutriator in accordance with Example 3 to collect D cells with high purity. After centrifugation, the cells were suspended in a cell culture medium (D-MEM/F-12 containing 10% FBS) and cultured in a CO2 incubator ([…]+5% CO2, 37° C.) (6×10^5 cells/250 μL/well). After 2-day culture, to the D cells washed with PBS was added each of CaSR agonists (20 μM cinacalcet (CCT), 20 μM γ-EVG, 10 mM phenylalanine (Phe), and 10 mM histidine (His)) mixed in a culture buffer (122 mM NaCl, 5 mM KCl, 25 mM NaHCO3, 1.3 mM MgSO4, 2 mM CaCl2, 15 mM HEPES, and 20 mM glucose, pH 7.4), and the cells were cultured for 90 minutes. After that, a culture supernatant was collected, filtered with a filter, and then measured for its somatostatin concentration with a somatostatin ELISA kit (manufactured by Phoenix, Calif.).
The somatostatin secretion was measured in accordance with the method of Example 4. After 2-day culture, to the D cells washed with PBS was added a CaSR agonist (20 μM γ-EVG), sodium glutamate (60 mM MSG), or a mixed solution thereof, mixed in a culture buffer (122 mM NaCl, 5 mM KCl, 25 mM NaHCO3, 1.3 mM MgSO4, 2 mM CaCl2, 15 mM HEPES, and 20 mM glucose, pH 7.4), and the cells were cultured for 90 minutes. After that, the culture supernatant was collected, filtered with a filter, and then the somatostatin concentration was measured by a somatostatin ELISA kit (Phoenix, Calif.).

stomach = test: Bicarbonate secretion in the stomach of anesthetized rats (ex-vivo chamber, pH-stat method); design: species or system male SD rats; conditions: 10 mg/kg administered into the gastric lumen; omeprazole 60 mg/kg i.p. to inhibit acid secretion
Description: (§1) The bicarbonate secretion was evaluated in accordance with the methods of Aihara et al. (Aihara, E. et al. 2005. J. Pharmacol. Exp. Ther. 315: 423-432) and Kagawa et al. (Kagawa, S. et al. 2003. Digestive Diseases and Sciences 48: 1850-1856).
The bicarbonate secretion in the stomach was measured as described below. The abdomen of each of male SD rats was opened in the midline under anesthesia with urethane (1.25 g/kg/5 ml, intraperitoneal administration) to expose the stomach. The stomach was left to stand still in an ex-vivo chamber (Tamura Seisakusho; 3.1 cm^2) and perfused with physiological saline saturated with 100% O2 gas. In order to inhibit acid secretion, 60 mg/kg omeprazole was intraperitoneally administered. The bicarbonate secretion was continuously measured by dropping 2 mM HCl to a perfusate until an end point of pH 7.0 by employing a pH-stat method (TOA, AUT-501).
(§2) A drug was administered into the gastric or duodenal lumen after the bicarbonate secretion at the baseline had been measured for 30 minutes, and the bicarbonate secretion amount was measured every 10 minutes.

duodenum = test: Bicarbonate secretion in the duodenum loop of anesthetized rats (pH-stat method); format: in vivo, male SD rats
Description: as §1
As for the bicarbonate secretion in the duodenum, the abdomen of each of male SD rats was opened under anesthesia, and a duodenum loop having a length of 1.7 cm from the pyloric ring of the stomach was prepared. The lumen of the loop was perfused with physiological saline saturated with 100% O2 gas (flow rate: 1 ml/min)
as §2
The abdomens of male SD rats were opened under anesthesia, and a duodenum loop having a length of 1.7 cm from the pyloric ring of the stomach was prepared. The lumen of the loop was perfused with physiological saline saturated with 100% O2 gas (flow rate: 1 ml/min).
After the bicarbonate secretion at the baseline had been measured for 30 minutes, distilled water for injection containing γ-EVG (100 mg/kg) or distilled water for injection (normal) was administered into the duodenal lumen, and the bicarbonate secretion amount was measured every 10 minutes.

[1] = system: histamine-induced gastric acid secretion; test: Histamine-induced gastric acid secretion in the removed, perfused stomach (pH-stat method); design: species or system male ddY mice; conditions: for histamine-induced gastric acid secretion: 100 μM histamine
Description: A model prepared in accordance with the method reported by Horie et al. (British Journal of Pharmacology 1994; 112: 87-92) was used as a model for histamine-induced gastric acid secretion. That is, 6-week-old male ddY mice were fasted for 18 hours, and the stomach was removed from each of the mice under anesthesia with urethane (1.25 g/kg/10 ml, intraperitoneal administration). A polyethylene cannula was inserted at each of the pyloric and esophageal sides of the stomach, and the stomach was left to stand still in an organ bath filled with a buffer (118.1 mM NaCl, 4.8 mM KCl, 1.0 mM KH2PO4, 16.0 mM Na2HPO4, 1.2 mM MgSO4, 0.65 mM CaCl2, and 31.6 mM glucose, saturated with 95% O2/5% CO2 gas, 37° C.). The intragastric pressure was kept at 15 cmH2O, and the lumen of the stomach was perfused with a buffer (135.8 mM NaCl, 4.8 mM KCl, 1.2 mM MgSO4, 1.3 mM CaCl2, and 31.6 mM glucose, pH 5.4, saturated with 95% O2/5% CO2 gas, 37° C.) at a flow rate of 1 ml/min
The acid secretion amount was continuously measured by dropping 10 mM NaOH to a perfusate until an end point of pH 5.4 by employing a pH-stat method (TOA, AUT-501). The intragastric acid secretion amount during no stimulation was measured for 30 minutes, and then the remove stomach left to stand still in the organ bath was treated with 100 μM histamine and cinacalcet (1.26, 12.6, and 126 μM). The gastric acid secretion amount was titrated for up to 90 minutes. The Dunnett's test was used as a statistical test for an effect of cinacalcet.
The gastric acid secretion was measured in accordance with the method of Example 2.

NSAID-induced enteritis = test: NSAID (loxoprofen)-induced enteritis, damaged area in the small intestine; format: in vivo, rats; conditions: 30 minutes before loxoprofen 60 mg/kg oral, 24 hours
Description: To non-fasting rats, distilled water for injection containing cinacalcet (1, 3, 10, and 100 mg/kg) or γ-EVG (100 mg/kg), or distilled water for injection (control) was orally administered. After 30 minutes, loxoprofen (60 mg/kg) was orally administered, and the rats were left to stand for 24 hours. 1 ml of 1% (w/w) Evans Blue dye was intravenously administered, and after 30 minutes, the rats were euthanized under deep ether anesthesia. The small intestine (from the duodenum to the ileum) of each of the rats was removed, then immersed in 2% formalin for 10 minutes so that the small intestine might be fixed from the serosal side, and incised from the opposite side of the mesentery, and the damaged area in the small intestine (mm^2) was measured with a dissecting microscope of 10 times power. The t-test or Dunnett's test was used for a statistical test and p<0.05 was considered significant.

N[C@@H](Cc1c[nH]cn1)C(=O)O [His, histidine]
somatostatin secretion (gastric mucosal D cells; 10 mM): remarkably promoted

N[C@@H](Cc1ccccc1)C(=O)O [Phe, phenylalanine]
somatostatin secretion (gastric mucosal D cells; 10 mM): remarkably promoted

C[C@@H](NCCCc1cccc(C(F)(F)F)c1)c1cccc2ccccc12.Cl [cinacalcet, (R)—N-(3-(3-trifluoromethylphenyl)propyl)-1-(1-naphthyl)ethylamine hydrochloride]
bicarbonate secretion in the stomach (stomach): promoted | bicarbonate secretion in the duodenum (duodenum; 10 mg/kg administered into the duodenal lumen): promoted | histamine-induced gastric acid secretion ([1]; 12.6 μM cinacalcet): inhibited | histamine-induced gastric acid secretion ([1]; cinacalcet 1.26, 12.6 and 126 μM): inhibited histamine-induced gastric acid secretion dose-dependently | histamine-induced gastric acid secretion ([1]; concentration of 126 μM): completely inhibited | somatostatin secretion (gastric mucosal D cells; 20 μM): remarkably promoted | damaged area in the small intestine (NSAID-induced enteritis; 1, 3, 10 and 100 mg/kg oral): reduced the damaged area dose-dependently

[γGlu]-Val-Gly [γ-EVG]
bicarbonate secretion in the duodenum (duodenum; 100 mg/kg administered into the duodenal lumen): promoted | somatostatin secretion (gastric mucosal D cells; 20 μM): remarkably promoted; also recorded: markedly promoted | damaged area in the small intestine (NSAID-induced enteritis; 100 mg/kg oral): reduced the damaged area

N[C@@H](CCC(=O)[O-])C(=O)[O-].[Na+].[Na+] [MSG, sodium glutamate]
somatostatin secretion (gastric mucosal D cells; 60 mM MSG): remarkably inhibited

NCCc1c[nH]cn1 [histamine]
gastric acid secretion ([1]; 100 μM histamine alone): promoted | acid secretion amount ([1]; 100 μM histamine stimulation, 0.5 to 0.8 nEq/10 min during no stimulation): about 3.2 nEq/10 min
